Laboratory results taken from patent publication US20220348564A1, “PHENYL-[1,3]DIOXOLO[4,5-C]PYRIDINYL-PHENYL-, PHENYL-[1,3]DIOXOLO[4,5-C]PYRIDINYL-HETEROARYL-, OR PHENYL-(1,3)DIOXO[4,5-C]PYRIDINYL-PIPERIDINYL-METHYL-OXETANYLMETHYL-1H-BENZO[D]IMIDAZOLE-CARBOXYLIC ACID DERIVATIVES AND METHODS OF USING SAME” (Eccogene (Shanghai) Co., Ltd., priority 2021, published 2022).

Biological target: T1, human GLP-1 (Homo sapiens, UniProt P43220)
T1 construct: expressed in transfected cells
Assay: h-GLP-1 activity assay (Cisbio cAMP Gs dynamic kit, HTRF)
Type: cell-based
Conditions: HEK293 cells with stable expression of human GLP-1, relative EC50, 10 nM human GLP-1 = 100% response
Method: Human GLP-1 agonizing activity was detected in HEK293 cells with stable expression of human GLP-1 by Cisbio cAMP Gs dynamic kit (Catalog #62AM4PEC) according to manufacturer's protocol. Briefly, cells were collected and resuspended in assay buffer containing 0.1% BSA and 0.5 mM of IBMX at concentration to 2.5×10^5 cells/mL. Two μL 5× compound solution and 8 μL cell suspension were added to each well of low-volume 384 white assay plate. After 30 min incubation at 37° C., 5 μL cAMP-d2 working solution and 5 μL anti-cAMP antibody-cryptate were added to each well, and incubate at room temperature for 1 hr. Series dilution of cAMP was used as standard. Human GLP-1 (7-37) was used as positive control and 10 nM human GLP-1 was set as 100% response. HTRF signals were read at 665 and 615 nm with EnVision plate reader and calculated cAMP concentration by intrapolation to the standard curve. The EC50 value of the tested compounds was calculated by fitting the dose response curve using a 4-parameter non-linear regression routine and relative EC50 was presented in Table S.

T1 sequence (P43220 24-463): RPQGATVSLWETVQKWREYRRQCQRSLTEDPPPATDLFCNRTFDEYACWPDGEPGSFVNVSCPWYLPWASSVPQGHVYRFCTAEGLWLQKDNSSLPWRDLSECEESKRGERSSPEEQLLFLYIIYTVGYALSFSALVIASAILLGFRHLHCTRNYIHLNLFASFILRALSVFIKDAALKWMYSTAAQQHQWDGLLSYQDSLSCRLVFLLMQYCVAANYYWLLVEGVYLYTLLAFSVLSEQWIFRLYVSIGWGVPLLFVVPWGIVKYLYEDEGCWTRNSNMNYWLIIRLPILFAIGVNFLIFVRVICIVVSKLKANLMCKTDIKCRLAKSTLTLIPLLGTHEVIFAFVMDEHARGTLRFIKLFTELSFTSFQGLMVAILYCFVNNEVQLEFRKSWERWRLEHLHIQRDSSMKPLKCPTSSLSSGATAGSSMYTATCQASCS

Structure (SMILES)	EC50 [nM]
O=C(O)c1ccc2nc(CN3CC=C(c4cccc5c4OC(c4ccc(Cl)cc4F)C(=O)N5)CC3)n(C[C@@H]3CCO3)c2c1 (mixture of isomers) [Compound 81, 2-((4-(2-(4-chloro-2-fluorophenyl)-3-oxo-3,4-dihydro-2H-benzo[b][1,4]oxazin-8-yl)-3,6-dihydropyridin-1(2H)-yl)methyl)-1-(((S)-oxetan-2-yl)methyl)-1H-benzo[d]imidazole-6-carboxylic acid]	> 100
N#Cc1ccc(COc2cccc(N3CCC(Oc4nc5ccc(C(=O)O)cc5n4C[C@@H]4CCO4)CC3)n2)c(F)c1 [Compound 80, (S)-2-((1-(6-((4-cyano-2-fluorobenzyl)oxy)pyridin-2-yl)piperidin-4-yl)oxy)-1-(oxetan-2-ylmethyl)-1H-benzo[d]imidazole-6-carboxylic acid]	> 100
C[C@@]1(c2ccc(Cl)cn2)Oc2cccc(C3CC4CC3CN4Cc3nc4ccc(C(=O)O)cc4n3C[C@@H]3CCO3)c2O1 (single isomer, unassigned) [Compound 74]	> 100
CC1(c2ccc(Cl)cc2F)Oc2cccc(C3CCC(Cc4nc5ccc(C(=O)O)cc5n4C[C@@H]4CCO4)CO3)c2O1 (mixture of isomers) [Compound 58, 2-((6-(2-(4-chloro-2-fluorophenyl)-2-methylbenzo[d][1,3]dioxol-4-yl)tetrahydro-2H-pyran-3-yl)methyl)-1-(((S)-oxetan-2-yl)methyl)-1H-benzo[d]imidazole-6-carboxylic acid]	> 100
C[C@]1(c2ccc(Cl)cn2)Oc2cccc(C3=CC[C@@H](Cc4nc5c(F)cc(C(=O)O)cc5n4C[C@@H]4CCO4)OC3)c2O1 (single isomer, unassigned) [Compound 119]	20 to 100
O=C(O)c1ccc2nc(CN3CCC(c4cccc5c4CC(c4ccc(Cl)cn4)O5)CC3)n(C[C@@H]3CCO3)c2c1 (mixture of isomers) [Compound 27, 2-((4-(2-(5-chloropyridin-2-yl)-2,3-dihydrobenzofuran-4-yl)piperidin-1-yl)methyl)-1-(((S)-oxetan-2-yl)methyl)-1H-benzo[d]imidazole-6-carboxylic acid]	> 100
CC1(c2ccc(Cl)cc2F)Oc2cccc(-c3ccc(Cc4nc5ccc(C(=O)O)cc5n4C[C@@H]4CCO4)cc3)c2O1 (mixture of isomers) [Compound 15, 2-(4-(2-(4-chloro-2-fluorophenyl)-2-methylbenzo[d][1,3]dioxol-4-yl)benzyl)-1-(((S)-oxetan-2-yl)methyl)-1H-benzo[d]imidazole-6-carboxylic acid]	< 20
O=C(O)c1ccc2nc(CC3CC=C(c4cccc5c4OC(c4ccc(Cl)cc4F)CO5)CO3)n(C[C@@H]3CCO3)c2c1 (mixture of isomers) [Compound 70, 2-((5-(3-(4-chloro-2-fluorophenyl)-2,3-dihydrobenzo[b][1,4]dioxin-5-yl)-3,6-dihydro-2H-pyran-2-yl)methyl)-1-(((S)-oxetan-2-yl)methyl)-1H-benzo[d]imidazole-6-carboxylic acid]	20 to 100
CC1(c2ccc(Cl)cc2F)Oc2cccc(-c3nc(Cc4nc5ccc(C(=O)O)cc5n4C[C@@H]4CCO4)cs3)c2O1 (mixture of isomers) [Compound 25, 2-((2-(2-(4-chloro-2-fluorophenyl)-2-methylbenzo[d][1,3]dioxol-4-yl)thiazol-4-yl)methyl)-1-(((S)-oxetan-2-yl)methyl)-1H-benzo[d]imidazole-6-carboxylic acid]	> 100
O=C(O)c1ccc2nc(CCN3CC(c4cccc(OCc5ccc(Cl)cc5F)n4)C3)n(C[C@@H]3CCO3)c2c1 [Compound 82, (S)-2-(2-(3-(6-((4-chloro-2-fluorobenzyl)oxy)pyridin-2-yl)azetidin-1-yl)ethyl)-1-(oxetan-2-ylmethyl)-1H-benzo[d]imidazole-6-carboxylic acid]	20 to 100
C[C@@]1(c2ccc(Cl)cn2)Oc2cccc(C3CCN(Cc4nc5ccc(C(=O)O)cc5n4C[C@@H]4CCO4)CC3(F)F)c2O1 (single isomer, unassigned) [Compound 76]	< 20
C[C@]1(c2ccc(C(F)(F)F)cn2)Oc2cccc(C3=CCC(Cc4nc5c(F)cc(C(=O)O)cc5n4C[C@@H]4CCO4)OC3)c2O1 (single isomer, unassigned) [Compound 122]	> 100
CC1(c2ccc(Cl)cc2F)Oc2cccc(C3CCC(Cc4nc5ccc(C(=O)O)cc5n4C[C@@H]4CCO4)OC3)c2O1 (mixture of isomers) [Compound 56, 2-((5-(2-(4-chloro-2-fluorophenyl)-2-methylbenzo[d][1,3]dioxol-4-yl)tetrahydro-2H-pyran-2-yl)methyl)-1-(((S)-oxetan-2-yl)methyl)-1H-benzo[d]imidazole-6-carboxylic acid]	< 20
C[C@@]1(c2ccc(Cl)cn2)Oc2cccc(C3=CC[C@@H](Cc4nc5ccc(C(=O)O)cc5n4C[C@@H]4CCO4)OC3)c2O1 (single isomer, unassigned) [Compound 79]	> 100
C[C@]1(c2ccc(Cl)cc2F)Oc2cccc(C3=CC[C@@H](Cc4nc5ccc(C(=O)O)cc5n4C[C@@H]4CCO4)OC3)c2O1 (single isomer, unassigned) [Compound 101]	20 to 100
C[C@@]1(c2ccc(Cl)cc2F)Oc2cccc(C3=CC[C@H](Cc4nc5ccc(C(=O)O)cc5n4C[C@@H]4CCO4)OC3)c2O1 (single isomer, unassigned) [Compound 106]	> 100
C[C@@]1(c2ccc(Cl)cn2)Oc2cccc(C3(F)CCN(Cc4nc5ccc(C(=O)O)cc5n4C[C@@H]4CCO4)CC3)c2O1 (single isomer, unassigned) [Compound 83]	20 to 100
C[C@]1(c2ccc(Cl)cc2F)Oc2cccc(-c3ccc(Cc4nc5ccc(C(=O)O)cc5n4C[C@@H]4CCO4)nc3)c2O1 (single isomer, unassigned) [Compound 18]	< 20
CC1(c2ccc(C(F)(F)F)cc2F)Oc2cccc(-c3ccc(Cc4nc5ccc(C(=O)O)cc5n4C[C@@H]4CCO4)cc3)c2O1 (mixture of isomers) [Compound 26, 2-(4-(2-(2-fluoro-4-(trifluoromethyl)phenyl)-2-methylbenzo[d][1,3]dioxol-4-yl)benzyl)-1-(((S)-oxetan-2-yl)methyl)-1H-benzo[d]imidazole-6-carboxylic acid]	< 20
CC1(c2ccc(Cl)cn2)COc2cccc(C3CCN(Cc4nc5ccc(C(=O)O)cc5n4C[C@@H]4CCO4)CC3)c2OC1 (mixture of isomers) [Compound 86, 2-((4-(3-(5-chloropyridin-2-yl)-3-methyl-3,4-dihydro-2H-benzo[b][1,4]dioxepin-6-yl)piperidin-l-yl)methyl)-1-(((S)-oxetan-2-yl)methyl)-1H-benzo[d]imidazole-6-carboxylic acid]	> 100
C[C@]1(c2ccc(Cl)cn2)Oc2cccc(C3=CC[C@H](Cc4nc5c(F)cc(C(=O)O)cc5n4Cc4cscn4)OC3)c2O1 (single isomer, unassigned) [Compound 116]	< 20
C[C@@]1(c2ccc(Cl)cc2F)Oc2cccc(C3CCN(Cc4nc5ccc(-c6noc(=O)[nH]6)cc5n4C[C@@H]4CCO4)CC3)c2O1 (single isomer, unassigned) [Compound 37]	< 20
O=C(O)c1ccc2nc(Cc3cc(F)c(-c4cccc5c4OC(c4ccc(Cl)cc4F)CO5)cc3F)n(C[C@@H]3CCO3)c2c1 (mixture of isomers) [Compound 60, 2-(4-(3-(4-chloro-2-fluorophenyl)-2,3-dihydrobenzo[b][1,4]dioxin-5-yl)-2,5-difluorobenzyl)-1-(((S)-oxetan-2-yl)methyl)-1H-benzo[d]imidazole-6-carboxylic acid]	< 20
N#Cc1ccc(COc2cccc([C@H]3CC[C@@H](Cc4nc5ccc(C(=O)O)cc5n4C[C@@H]4CCO4)OC3)n2)c(F)c1 (single isomer, unassigned) [Compound 33]	< 20
N#Cc1ccc(COc2cccc([C@@H]3CC[C@H](Cc4nc5ccc(C(=O)O)cc5n4C[C@@H]4CCO4)OC3)n2)c(F)c1 (single isomer, unassigned) [Compound 32]	< 20
N#Cc1ccc(COc2cccc([C@H]3CC[C@H](Cc4nc5ccc(C(=O)O)cc5n4C[C@@H]4CCO4)OC3)n2)c(F)c1 (single isomer, unassigned) [Compound 30]	< 20
C[C@]1(c2ccc(Cl)cn2)Oc2cccc(C3=CC[C@@H](Cc4nc5ccc(C(=O)O)cc5n4Cc4cscn4)OC3)c2O1 (single isomer, unassigned) [Compound 115]	> 100
CN1C(=O)C(c2ccc(Cl)cc2F)Oc2c(C3CCN(Cc4nc5ccc(C(=O)O)cc5n4C[C@@H]4CCO4)CC3)cccc21 (mixture of isomers) [Compound 105, 2-((4-(2-(4-chloro-2-fluorophenyl)-4-methyl-3-oxo-3,4-dihydro-2H-benzo[b][1,4]oxazin-8-yl)piperidin-1-yl)methyl)-1-(((S)-oxetan-2-yl)methyl)-1H-benzo[d]imidazole-6-carboxylic acid]	> 100
C[C@@]1(c2ccc(Cl)cn2)Oc2cccc([C@H]3CC[C@@H](Cc4nc5ccc(C(=O)O)cc5n4C[C@@H]4CCO4)OC3)c2O1 (single isomer, unassigned) [Compound 102]	> 100
N#Cc1ccc(COc2nccc(C34CCC(Cc5nc6ccc(C(=O)O)cc6n5C[C@@H]5CCO5)(CC3)CC4)n2)c(F)c1 [Compound 34, (S)-2-((4-(2-((4-cyano-2-fluorobenzyl)oxy)pyrimidin-4-yl)bicyclo[2.2.2]octan-1-yl)methyl)-1-(oxetan-2-ylmethyl)-1H-benzo[d]imidazole-6-carboxylic acid]	> 100
